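Protocol summary: plate cells (96-well), add compound at 5 concentrations, incubate 48 h, interpolate endpoints linearly. At the GI50, growth is halved.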 The source made the active and inactive calls. No stated cut-off is given here; in the data, active = GI50 up to about 1.1 µM and inactive = higher.
Assays:
Experiment in all cases: DTP human tumour cell line panel, 48 h
786-0 = tested on: 786-0
A549 = tested on: A549
BT-549 = tested on: BT-549
CAKI-1 = tested on: CAKI-1
CCRF-CEM = tested on: CCRF-CEM
COLO 205 = tested on: COLO 205
DU-145 = tested on: DU-145
EKVX = tested on: EKVX
HCT-116 = tested on: HCT-116
HCT-15 = tested on: HCT-15
HL-60 = tested on: HL-60
HOP-62 = tested on: HOP-62
HOP-92 = tested on: HOP-92
HT-29 = tested on: HT-29
Hs-578T = tested on: Hs-578T
IGROV-1 = tested on: IGROV-1
K562 = tested on: K562
KM12 = tested on: KM12
LOX IMVI = tested on: LOX IMVI
M14 = tested on: M14
MDA-MB-435 = tested on: MDA-MB-435
MDA-N = tested on: MDA-N
MOLT-4 = tested on: MOLT-4
Malme-3M = tested on: Malme-3M
NCI-H23 = tested on: NCI-H23
NCI/ADR-RES = tested on: NCI/ADR-RES
OVCAR-3 = tested on: OVCAR-3
OVCAR-4 = tested on: OVCAR-4
OVCAR-5 = tested on: OVCAR-5
OVCAR-8 = tested on: OVCAR-8
RPMI-8226 = tested on: RPMI-8226
RXF 393 = tested on: RXF 393
SF-268 = tested on: SF-268
SF-295 = tested on: SF-295
SK-OV-3 = tested on: SK-OV-3
SN12C = tested on: SN12C
SNB-19 = tested on: SNB-19
SNB-75 = tested on: SNB-75
SR = tested on: SR
SW-620 = tested on: SW-620
T47D = tested on: T47D
UO-31 = tested on: UO-31
A498 = tested on: A498
MDA-MB-231 = tested on: MDA-MB-231
NCI-H226 = tested on: NCI-H226
NCI-H460 = tested on: NCI-H460
NCI-H522 = tested on: NCI-H522
PC-3 = tested on: PC-3
SK-MEL-28 = tested on: SK-MEL-28
SK-MEL-2 = tested on: SK-MEL-2
SK-MEL-5 = tested on: SK-MEL-5
TK-10 = tested on: TK-10
U-251 = tested on: U-251
UACC-257 = tested on: UACC-257
UACC-62 = tested on: UACC-62

O=c1[nH]nc(-c2ccccc2)c2[nH]c(-c3ccccc3)cc12
GI50 (786-0): > 100 µM (inactive) | GI50 (A549): > 100 µM (inactive) | GI50 (BT-549): > 100 µM (inactive) | GI50 (CAKI-1): > 100 µM (inactive) | GI50 (CCRF-CEM): > 100 µM (inactive) | GI50 (COLO 205): > 100 µM (inactive) | GI50 (DU-145): > 100 µM (inactive) | GI50 (EKVX): > 100 µM (inactive) | GI50 (HCT-116): > 100 µM (inactive) | GI50 (HCT-15): 68.5 µM | GI50 (HL-60): > 100 µM (inactive) | GI50 (HOP-62): > 100 µM (inactive) | GI50 (HOP-92): > 100 µM (inactive) | GI50 (HT-29): 12.2 µM (inactive) | GI50 (Hs-578T): > 100 µM (inactive) | GI50 (IGROV-1): > 100 µM (inactive) | GI50 (K562): 50.8 µM (inactive) | GI50 (KM12): > 100 µM (inactive) | GI50 (LOX IMVI): > 100 µM (inactive) | GI50 (M14): > 100 µM (inactive) | GI50 (MDA-MB-435): > 100 µM (inactive) | GI50 (MDA-N): > 100 µM (inactive) | GI50 (MOLT-4): 39 µM (inactive) | GI50 (Malme-3M): > 100 µM (inactive) | GI50 (NCI-H23): > 100 µM (inactive) | GI50 (NCI/ADR-RES): > 100 µM (inactive) | GI50 (OVCAR-3): > 100 µM (inactive) | GI50 (OVCAR-4): > 100 µM (inactive) | GI50 (OVCAR-5): > 100 µM (inactive) | GI50 (OVCAR-8): > 100 µM (inactive) | GI50 (RPMI-8226): 88.3 µM (inactive) | GI50 (RXF 393): > 100 µM (inactive) | GI50 (SF-268): > 100 µM (inactive) | GI50 (SF-295): > 100 µM (inactive) | GI50 (SK-OV-3): > 100 µM (inactive) | GI50 (SN12C): > 100 µM (inactive) | GI50 (SNB-19): > 100 µM (inactive) | GI50 (SNB-75): 45.8 µM (inactive) | GI50 (SR): 38.8 µM (inactive) | GI50 (SW-620): > 100 µM (inactive) | GI50 (T47D): 25.5 µM (inactive) | GI50 (UO-31): > 100 µM (inactive)

O=c1c(C(c2ccc([N+](=O)[O-])cc2)c2c(O)oc3ccccc3c2=O)c(O)oc2ccccc12
GI50 (786-0): > 100 µM (inactive) | GI50 (A498): > 100 µM (inactive) | GI50 (BT-549): > 100 µM (inactive) | GI50 (CAKI-1): > 100 µM (inactive) | GI50 (CCRF-CEM): > 100 µM (inactive) | GI50 (COLO 205): > 100 µM (inactive) | GI50 (DU-145): > 100 µM (inactive) | GI50 (EKVX): > 100 µM (inactive) | GI50 (HCT-116): > 100 µM (inactive) | GI50 (HCT-15): > 100 µM | GI50 (HL-60): > 100 µM (inactive) | GI50 (HOP-62): > 100 µM (inactive) | GI50 (HOP-92): > 100 µM (inactive) | GI50 (HT-29): > 100 µM (inactive) | GI50 (Hs-578T): > 100 µM (inactive) | GI50 (IGROV-1): > 100 µM (inactive) | GI50 (K562): 10 µM (inactive) | GI50 (KM12): > 100 µM (inactive) | GI50 (LOX IMVI): > 100 µM (inactive) | GI50 (MDA-MB-231): > 100 µM (inactive) | GI50 (MDA-MB-435): > 100 µM (inactive) | GI50 (MDA-N): > 100 µM (inactive) | GI50 (MOLT-4): > 100 µM (inactive) | GI50 (Malme-3M): > 100 µM (inactive) | GI50 (NCI-H226): > 100 µM (inactive) | GI50 (NCI-H23): > 100 µM (inactive) | GI50 (NCI-H460): > 100 µM (inactive) | GI50 (NCI-H522): > 100 µM (inactive) | GI50 (NCI/ADR-RES): > 100 µM (inactive) | GI50 (OVCAR-3): > 100 µM (inactive) | GI50 (OVCAR-4): > 100 µM (inactive) | GI50 (OVCAR-8): > 100 µM (inactive) | GI50 (PC-3): > 100 µM (inactive) | GI50 (RPMI-8226): 1 µM (active) | GI50 (SF-268): > 100 µM (inactive) | GI50 (SK-MEL-28): > 100 µM (inactive) | GI50 (SK-MEL-2): > 100 µM (inactive) | GI50 (SK-MEL-5): > 100 µM (inactive) | GI50 (SN12C): > 100 µM (inactive) | GI50 (SNB-19): > 100 µM (inactive) | GI50 (SNB-75): 86.5 µM (inactive) | GI50 (SW-620): > 100 µM (inactive) | GI50 (T47D): > 100 µM (inactive) | GI50 (TK-10): > 100 µM (inactive) | GI50 (U-251): > 100 µM (inactive) | GI50 (UACC-257): > 100 µM (inactive) | GI50 (UACC-62): > 100 µM (inactive) | GI50 (UO-31): > 100 µM (inactive)

— ChEMBL document CHEMBL1201862, “PubChem BioAssay data set” (2004)
